Here are results for one compound from US20260015365A1, “PRODRUGS OF SOMATOSTATIN RECEPTORS SUBTYPE 4 (SSTR4) AGONISTS AND THEIR APPLICATIONS” (Humanwell Pharmaceutical US, Inc., priority 2024, published 2026).

This series is described as follows: Pharmacokinetics in SD rats after intravenous injection and single oral gavage, plasma LC-MS/MS. It is filed as in vivo. The following applies: male, rat. As to the method: SD rats (male, 6-8 weeks old, from JH Laboratory Animal Co., Ltd.) were used for intravenous injection and single oral gavage administration. Plasma samples were collected at 0.083, 0.25, 0.5, 1, 2, 4, 8, and 24 hours post-dose.
The plasma samples were obtained by centrifugation (2000 rpm, 4° C., 5 min). Samples were added to a 96-well plate and mixed with 10 volumes of acetonitrile containing an internal standard. After mixing and shaking, the mixture was centrifuged (5800 rpm, 4° C., 10 min), and the supernatant was transferred to a new 96-well plate.
The resulting solution was injected into the LC-MS/MS system. Drug concentrations in plasma were quantified using the LC-MS/MS method, and pharmacokinetic parameters were calculated accordingly.

As for `CC(C)(NC(=O)[C@H]1[C@@H]2CNC[C@H]1C2)c1ncc2c(Br)cccn12` [compound 1], under “IV, 1 mg/kg”, the total exposure AUC(0-inf) was found to be 370 ng·h/mL, the area under the curve AUC(0-t) is 361 ng·h/mL, the mean residence time (MRT inf) was found to be 52.7 min and the clearance was 45.2 mL/min/kg. The half-life (IV, 1 mg/kg) is 48.8 min. Besides, the Vd (IV, 1 mg/kg, read-out: Vss) turned out to be 2.38 L/kg. In addition, under “PO, 3 mg/kg”, the highest level (Cmax) was 36.3 ng/mL, the Tmax amounted to 1.42 h and the half-life is 146 min.

As usually defined, the AUC(0-inf) is total exposure, with the tail of the curve extrapolated. A higher AUC(0-inf) goes with more exposure. As a reminder, the AUC(0-t) is exposure summed from dosing to a finite time, without extrapolation to infinity. A lower AUC(0-t) goes with less exposure. Usually MRT inf stands for a mean duration of stay, worked out from the concentration-time curve. One may read the half-life as the time needed for the level to fall by half in the phase considered. Low values mean rapid decline, high ones slow decline. The Cmax is the maximum level reached in the sampled fluid or tissue. As a reminder, the Tmax is the time from dosing to the highest level.
